What was measured:
BTK wildtype protein = BTK wildtype protein (Homo sapiens (Human), UniProt Q06187); assay: BTK wildtype HTRF displacement assay; format: binding; conditions: 1-hour incubation; read-out: BTK (wt) IC50
Summary of the method: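 Full-length N-terminal GST-tagged BTK incubated 1 h at room temperature with compound (6 doses, four-fold dilutions from 5 μM top) plus kinase tracer 239 and anti-GST-Tb antibody. Tracer displacement read as TR-FRET 665/620 ratio, background-subtracted using no-protein control. IC50 from four-parameter fit constrained 0–100% inhibition.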

BTK C481S protein = BTK C481S protein (Homo sapiens (Human), UniProt Q06187, C481S); assay: BTK C481S HTRF displacement assay; format: binding; conditions: 1-hour incubation
Chain of BTK C481S protein (Q06187 2-659 C481S): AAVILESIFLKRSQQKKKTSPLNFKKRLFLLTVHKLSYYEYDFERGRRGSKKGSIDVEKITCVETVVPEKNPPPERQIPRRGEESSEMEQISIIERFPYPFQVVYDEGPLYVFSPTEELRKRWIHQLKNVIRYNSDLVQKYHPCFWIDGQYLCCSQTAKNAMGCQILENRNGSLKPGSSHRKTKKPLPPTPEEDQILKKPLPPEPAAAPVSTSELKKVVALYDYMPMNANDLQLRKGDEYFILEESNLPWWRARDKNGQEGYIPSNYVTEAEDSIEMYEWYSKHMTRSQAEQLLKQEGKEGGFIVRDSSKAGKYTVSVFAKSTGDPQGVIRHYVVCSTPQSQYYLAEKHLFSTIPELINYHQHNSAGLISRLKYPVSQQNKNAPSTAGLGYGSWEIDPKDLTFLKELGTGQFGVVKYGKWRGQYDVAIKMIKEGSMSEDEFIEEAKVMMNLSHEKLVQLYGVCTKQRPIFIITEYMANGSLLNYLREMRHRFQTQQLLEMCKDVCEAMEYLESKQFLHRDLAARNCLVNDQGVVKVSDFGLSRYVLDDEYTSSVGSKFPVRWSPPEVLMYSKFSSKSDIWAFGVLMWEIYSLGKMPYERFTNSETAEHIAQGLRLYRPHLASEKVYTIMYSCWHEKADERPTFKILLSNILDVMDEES
Summary of the method: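 N-terminal GST-tagged BTK C481S (2-659) incubated 1 hour at room temperature with compound (6 doses, four-fold from 5 μM), 50 nM kinase tracer 239 and anti-GST-Tb antibody. TR-FRET 665/620 ratio, background-subtracted; IC50 from constrained four-parameter fit. KI=IC50/(1+[Tracer]/Kd), tracer Kd 54 nM.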

Chain of BTK wildtype protein (Q06187 2-659): as the sequence (Q06187 2-659 C481S) above, with S480C counted along it

| Structure (SMILES) | IC50 (BTK wildtype protein) [µM] | IC50 (BTK C481S protein) [µM] |
| --- | --- | --- |
| CN(C(=O)n1cncn1)C1CCC2C(CNc3c(C(N)=O)c(-c4ccc(Oc5ccccc5)cc4)nn32)C1 (stereo not shown) [Compound 199, 7-(N-methyl-1H-1,2,4-triazole-1-carboxamido)-2-(4-phenoxyphenyl)-4,5,5a,6,7,8,9,9a-octahydro-pyrazolo[1,5-a]quinazoline-3-carboxamide] | ≤ 1 | ≤ 1 |
| COc1ccc(F)cc1C(=O)NCc1ccc(-c2nn(C(CC3CCCCC3)CN(C)C(=O)n3cncn3)c3ncnc(N)c23)cc1 (stereo not shown) [Compound 202, N-(2-(4-amino-3-(4-((5-fluoro-2-methoxybenzamido)methyl)phenyl)-1H-pyrazolo[3,4-d]pyrimidin-1-yl)-3-cyclohexylpropyl)-N-methyl-1H-1,2,4-triazole-1-carboxamide] | > 1 | > 1 |
| NC(=O)c1nn2c(c1-c1ccc(Oc3ccccc3)cc1)NCCC2C1CCCCN1C(=O)n1cncn1 (stereo not shown) [Compound 203, 7-(1-(1H-1,2,4-triazole-1-carbonyl)piperidin-2-yl)-3-(4-phenoxy-phenyl)-4,5,6,7-tetrahydro-pyrazolo[1,5-a]pyrimidine-2-carboxamide] | > 1 | > 1 |
| CC[C@@H](Cn1nc(-c2ccc(CNC(=O)c3cc(F)ccc3OC)cc2)c2c(N)ncnc21)N(C)C(=O)n1cncn1 [Compound 204, (S)-N-(1-(4-amino-3-(4-((5-fluoro-2-methoxybenzamido)methyl)phenyl)-1H-pyrazolo[3,4-d]pyrimidin-1-yl)butan-2-yl)-N-methyl-1H-1,2,4-triazole-1-carboxamide] | ≤ 1 | ≤ 1 |
| CC(C1CCNc2c(C(N)=O)c(-c3ccc(Oc4ccccc4)cc3)nn21)N(C)C(=O)n1cncn1 (stereo not shown) [Compound 205, 7-(1-(N-methyl-1H-1,2,4-triazole-1-carboxamido)ethyl)-2-(4-phenoxy-phenyl)-4,5,6,7-tetrahydro-pyrazolo[1,5-a]pyrimidine-3-carboxamide] | ≤ 1 | ≤ 1 |
| COc1ccc(F)cc1C(=O)NCc1ccc(-c2nn(C(CC3CCCC3)CN(C)C(=O)n3cncn3)c3ncnc(N)c23)cc1 (stereo not shown) [Compound 206, N-(2-(4-amino-3-(4-((5-fluoro-2-methoxybenzamido)methyl)phenyl)-1H-pyrazolo[3,4-d]pyrimidin-1-yl)-3-cyclopentylpropyl)-N-methyl-1H-1,2,4-triazole-1-carboxamide] | > 1 | > 1 |
| NC(=O)c1c(-c2ccc(Oc3ccccc3)cc2)nn2c1NCCC2C1CCCN(C(=O)n2cncn2)C1 (stereo not shown) [Compound 207, 7-(1-(1H-1,2,4-triazole-1-carbonyl)piperidin-3-yl)-2-(4-phenoxy-phenyl)-4,5,6,7-tetrahydro-pyrazolo[1,5-a]pyrimidine-3-carboxamide] | ≤ 1 | ≤ 1 |
| COc1ccc(F)cc1C(=O)NCc1ccc(-c2nn(C[C@@H]3C[C@H](F)CN3C(=O)n3cncn3)c3ncnc(N)c23)cc1 [Compound 208, N-(4-(4-amino-1-(((2S,4S)-4-fluoro-1-(1H-1,2,4-triazole-1-carbonyl)pyrrolidin-2-yl)methyl)-1H-pyrazolo[3,4-d]pyrimidin-3-yl)benzyl)-5-fluoro-2-methoxybenzamide] | ≤ 1 | ≤ 1 |
| COc1ccc(F)cc1C(=O)NCc1ccc(-c2nn(CC3CCC3N(C)C(=O)n3cncn3)c3ncnc(N)c23)cc1 (stereo not shown) [Compound 209, N-(2-((4-amino-3-(4-((5-fluoro-2-methoxybenzamido)methyl)phenyl)-1H-pyrazolo[3,4-d]pyrimidin-1-yl)methyl)cyclobutyl)-N-methyl-1H-1,2,4-triazole-1-carboxamide] | ≤ 1 | ≤ 1 |
| COc1ccc(F)cc1C(=O)NCc1ccc(-c2nn(CC3COCCN3C(=O)n3cncn3)c3ncnc(N)c23)cc1 (stereo not shown) [Compound 210, N-(4-(1-((4-(1H-1,2,4-triazole-1-carbonyl)morpholin-3-yl)methyl)-4-amino-1H-pyrazolo[3,4-d]pyrimidin-3-yl)benzyl)-5-fluoro-2-methoxybenzamide] | > 1 | > 1 |
| COc1ccc(F)cc1C(=O)NCc1ccc(-c2nn(CC3CCCC3N(C)C(=O)n3cncn3)c3ncnc(N)c23)cc1 (stereo not shown) [Compound 211, N-(2-((4-amino-3-(4-((5-fluoro-2-methoxybenzamido)methyl)phenyl)-1H-pyrazolo[3,4-d]pyrimidin-1-yl)methyl)cyclopentyl)-N-methyl-1H-1,2,4-triazole-1-carboxamide] | ≤ 1 | ≤ 1 |
| COc1ccc(F)cc1C(=O)NCc1ccc(-c2nn(C[C@H]3C[C@@H](C)CCN3C(=O)n3cnnc3)c(N)c2C(N)=O)cc1 [Compound 212, 5-amino-3-(4-((5-fluoro-2-methoxybenzamido)methyl)phenyl)-1-(((2R,4S)-4-methyl-1-(4H-1,2,4-triazole-4-carbonyl)piperidin-2-yl)methyl)-1H-pyrazole-4-carboxamide] | ≤ 1 | ≤ 1 |
| COc1ccc(F)cc1C(=O)NCc1ccc(-c2nn(C3(CCN(C)C(=O)n4cncn4)CCC3)c3ncnc(N)c23)cc1 [Compound 213, N-(2-(1-(4-amino-3-(4-((5-fluoro-2-methoxybenzamido)methyl)phenyl)-1H-pyrazolo[3,4-d]pyrimidin-1-yl)cyclobutyl)ethyl)-N-methyl-1H-1,2,4-triazole-1-carboxamide] | ≤ 1 | ≤ 1 |
| COCCC(Cn1nc(-c2ccc(CNC(=O)c3cc(F)ccc3OC)cc2)c2c(N)ncnc21)N(C)C(=O)n1cncn1 (stereo not shown) [Compound 214, N-(1-(4-amino-3-(4-((5-fluoro-2-methoxybenzamido)methyl)phenyl)-1H-pyrazolo[3,4-d]pyrimidin-1-yl)-4-methoxy-butan-2-yl)-N-methyl-1H-1,2,4-triazole-1-carboxamide] | > 1 | > 1 |
| COc1ccc(C)cc1C(=O)NCc1ccc(-c2nn(C3CCCC(N(C)C(=O)n4cncn4)C3)c3ncnc(N)c23)cc1 (stereo not shown) [Compound 215, N-(3-(4-amino-3-(4-((2-methoxy-5-methylbenzamido)methyl)phenyl)-1H-pyrazolo[3,4-d]pyrimidin-1-yl)cyclohexyl)-N-methyl-1H-1,2,4-triazole-1-carboxamide] | ≤ 1 | ≤ 1 |
| COc1ccc(C)cc1C(=O)NCc1ccc(-c2nn(CC3CCCCN3C(=O)n3cncn3)c3ncnc(N)c23)cc1 (stereo not shown) [Compound 217, N-(4-(1-((1-(1H-1,2,4-triazole-1-carbonyl)piperidin-2-yl)methyl)-4-amino-1H-pyrazolo[3,4-d]pyrimidin-3-yl)benzyl)-2-methoxy-5-methylbenzamide] | ≤ 1 | > 1 |
| COc1ccc(F)cc1C(=O)NCc1ccc(-c2nn(C(C)CN(C)C(=O)n3cncn3)c(N)c2C(N)=O)cc1 (stereo not shown) [Compound 218, N-(2-(5-amino-4-carbamoyl-3-(4-((5-fluoro-2-methoxybenzamido)methyl)phenyl)-1H-pyrazol-1-yl)propyl)-N-methyl-1H-1,2,4-triazole-1-carboxamide] | ≤ 1 | ≤ 1 |
| COc1ccc(C)cc1C(=O)NCc1ccc(-c2nn(C3CCCC(N(C)C(=O)n4cnnn4)C3)c3ncnc(N)c23)cc1 (stereo not shown) [Compound 219, N-(3-(4-amino-3-(4-((2-methoxy-5-methylbenzamido)methyl)phenyl)-1H-pyrazolo[3,4-d]pyrimidin-1-yl)cyclohexyl)-N-methyl-1H-tetrazole-1-carboxamide] | ≤ 1 | ≤ 1 |
| NC(=O)c1c(-c2ccc(Oc3ccccc3)cc2)nn2c1NCCC2C1CN(C(=O)n2cncn2)C1 (stereo not shown) [Compound 220, 7-(1-(1H-1,2,4-triazole-1-carbonyl)azetidin-3-yl)-2-(4-phenoxyphenyl)-4,5,6,7-tetrahydropyrazolo[1,5-a] pyrimidine-3-carboxamide] | ≤ 1 | ≤ 1 |
| COc1ccc(F)cc1C(=O)NCc1ccc(-c2nn(C[C@@H]3C[C@@H](F)CN3C(=O)n3cncn3)c3ncnc(N)c23)cc1 [Compound 221, N-(4-(4-amino-1-(((2S,4R)-4-fluoro-1-(1H-1,2,4-triazole-1-carbonyl)pyrrolidin-2-yl)methyl)-1H-pyrazolo[3,4-d]pyrimidin-3-yl)benzyl)-5-fluoro-2-methoxybenzamide] | > 1 | ≤ 1 |
| COc1ccc(F)cc1C(=O)NCc1ccc(-c2nn([C@H]3CCCC[C@@H](N(C)C(=O)n4cncn4)C3)c(N)c2C(N)=O)cc1 [Compound 222, N-((1R,3S)-3-(5-amino-4-carbamoyl-3-(4-((5-fluoro-2-methoxybenzamido)methyl)phenyl)-1H-pyrazol-1-yl)cycloheptyl)-N-methyl-1H-1,2,4-triazole-1-carboxamide] | ≤ 1 | ≤ 1 |
| NC(=O)c1c(-c2ccc(Oc3ccccc3)cc2)nn2c1NCC[C@H]2[C@@H]1CCCCN1C(=O)n1cncn1 [Compound 223, (S)-7-((S)-1-(1H-1,2,4-triazole-1-carbonyl)piperidin-2-yl)-2-(4-phenoxyphenyl)-4,5,6,7-tetrahydropyrazolo[1,5-a] pyrimidine-3-carboxamide] | > 1 | > 1 |
| COc1ccc(F)cc1C(=O)NCc1ccc(-c2nn(C[C@@H]3C[C@@H](O)CN3C(=O)n3cncn3)c3ncnc(N)c23)cc1 [Compound 224, N-(4-(4-amino-1-(((2S,4R)-4-hydroxy-1-(1H-1,2,4-triazole-1-carbonyl)pyrrolidin-2-yl)methyl)-1H-pyrazolo[3,4-d]pyrimidin-3-yl)benzyl)-5-fluoro-2-methoxybenzamide] | > 1 | > 1 |
